Measured values taken from article PMC10974603, “Cytotoxicity and Multi-Enzyme Inhibition of Nepenthes miranda Stem Extract on H838 Human Non-Small Cell Lung Cancer Cells and RPA32, Elastase, Tyrosinase, and Hyaluronidase Proteins” (Plants, 2024).
Each block holds one molecule with its values, some of them ahead of it.

Legend:
[1] = target: T1, elastase (Porcine pancreatic elastase) (Sus scrofa, UniProt P00772); assay: absorbance […] nm, p-nitroanilide release; assay type: biochemical
T1 construct: gene CELA1; native pancreatic enzyme, commercial preparation; mature active enzyme

[2] = target: T2, hyaluronidase from bovine testes type I-S (Bos taurus, UniProt Q2YDK3); assay: turbidity with acidic albumin, absorbance […] nm; assay type: biochemical; settings: hyaluronic acid substrate (0.03% stock); phosphate pH 5.35; 37 °C; 45 min; preincubation at pH 7
T2 construct: gene SPAM1; native bovine testes enzyme, commercial type I-S preparation
T2 sequence (Q2YDK3 36-553): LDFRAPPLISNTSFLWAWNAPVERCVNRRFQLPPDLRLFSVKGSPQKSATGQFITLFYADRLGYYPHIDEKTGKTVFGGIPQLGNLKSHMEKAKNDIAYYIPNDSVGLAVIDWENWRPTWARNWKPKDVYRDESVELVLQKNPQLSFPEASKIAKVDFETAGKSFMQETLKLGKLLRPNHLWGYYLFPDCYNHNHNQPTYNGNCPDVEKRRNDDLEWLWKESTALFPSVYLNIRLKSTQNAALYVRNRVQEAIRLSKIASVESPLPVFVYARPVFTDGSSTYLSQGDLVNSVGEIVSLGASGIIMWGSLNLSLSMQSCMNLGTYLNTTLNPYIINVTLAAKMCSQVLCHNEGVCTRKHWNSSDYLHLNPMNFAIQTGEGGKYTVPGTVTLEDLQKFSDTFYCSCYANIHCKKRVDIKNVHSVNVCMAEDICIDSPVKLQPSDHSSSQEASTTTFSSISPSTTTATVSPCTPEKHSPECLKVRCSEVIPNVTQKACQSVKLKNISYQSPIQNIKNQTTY

huRPA32 = huRPA32 (human, UniProt P15927 1-270); assay: EMSA; no extract; [Protein]50; 40 mM Tris-HCl pH 7.5, 50 mM NaCl, 37 °C 60 min, DNA 30 fmol/uL; 8% native PAGE in TBE; settings: protein: recombinant; tags: N-terminal EF (EcoRI site); label: 5' biotin; single-stranded
huRPA32, sequence (P15927 whole entry): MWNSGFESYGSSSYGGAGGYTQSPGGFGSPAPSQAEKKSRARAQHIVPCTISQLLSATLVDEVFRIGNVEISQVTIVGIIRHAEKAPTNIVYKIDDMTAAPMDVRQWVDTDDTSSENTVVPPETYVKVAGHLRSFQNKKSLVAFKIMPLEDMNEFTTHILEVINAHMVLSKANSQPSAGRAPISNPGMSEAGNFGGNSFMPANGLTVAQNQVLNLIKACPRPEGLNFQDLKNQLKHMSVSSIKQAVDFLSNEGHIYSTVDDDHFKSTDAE

T1 sequence (P00772 27-266): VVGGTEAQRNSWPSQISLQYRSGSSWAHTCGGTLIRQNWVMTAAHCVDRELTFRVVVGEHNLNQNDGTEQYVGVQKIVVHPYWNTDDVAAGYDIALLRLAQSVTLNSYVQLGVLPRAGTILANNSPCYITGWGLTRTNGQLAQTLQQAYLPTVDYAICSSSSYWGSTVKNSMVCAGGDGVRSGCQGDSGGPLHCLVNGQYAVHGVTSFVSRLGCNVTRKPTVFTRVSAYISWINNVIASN

IC50 [1]: 9.62 µM
Molecule: O=C(O[C@@H]1Cc2c(O)cc(O)cc2O[C@@H]1c1cc(O)c(O)c(O)c1)c1cc(O)c(O)c(O)c1 [EGCG]

IC50 [2]: 29.9 µM
Molecule: O=c1c(O)c(-c2cc(O)c(O)c(O)c2)oc2cc(O)cc(O)c12 [Myr]

Molecule: TTTTTTTTTTTTTTTTTTTTTTTTT (ssDNA) [dT25]
apparent K (half saturation) (huRPA32): 6.3 ± 0.5 µM
